Measurements as given in a compilation of properties of binary mixtures (doi:10.1021/acs.jced.0c00495).

Experiment: xn = mol fraction of the nth substance listed
Conditions: 101.3 kPa

Work on `Nc1ccccc1` + CCCCCCCCn1cc[n+](C)c1.F[B-](F)(F)F yielded a speed of sound (293.15 K, x2 = 0) of 1657 m/s, a speed of sound (298.15 K, x2 = 0) of 1638 m/s and a speed of sound (303.15 K, x2 = 0) of 1618 m/s. The speed of sound (308.15 K, x2 = 0) was 1599 m/s, the speed of sound (318.15 K, x2 = 0) was 1561 m/s and the speed of sound (323.15 K, x2 = 0) was 1542 m/s.
In the case of `Nc1ccccc1` + CCCCCC[n+]1ccn(C)c1.F[B-](F)(F)F, the speed of sound (293.15 K, x2 = 0) is reported as 1657 m/s, the speed of sound (298.15 K, x2 = 0) is reported as 1638 m/s and the speed of sound (303.15 K, x2 = 0) is reported as 1618 m/s. It also gave a speed of sound (308.15 K, x2 = 0) of 1599 m/s.
In the case of `Nc1ccccc1` + CCCC[n+]1ccn(C)c1.F[B-](F)(F)F, the speed of sound (293.15 K, x2 = 0.0925) is reported as 1656 m/s, the speed of sound (293.15 K, x2 = 0.2995) is reported as 1645 m/s and the speed of sound (293.15 K, x2 = 0.4002) is reported as 1634 m/s. The speed of sound (293.15 K, x2 = 0.5953) was 1613 m/s, the speed of sound (293.15 K, x2 = 0.6935) was 1603 m/s and the speed of sound (293.15 K, x2 = 0.9191) was 1583 m/s. It also gave a speed of sound (298.15 K, x2 = 0) of 1638 m/s, a speed of sound (298.15 K, x2 = 0.2022) of 1636 m/s and a speed of sound (298.15 K, x2 = 0.2995) of 1630 m/s. For the same molecule, the speed of sound (298.15 K, x2 = 0.4002) was 1619 m/s, the speed of sound (298.15 K, x2 = 0.5953) was 1600 m/s and the speed of sound (298.15 K, x2 = 0.6935) was 1590 m/s. For the same molecule, the speed of sound (298.15 K, x2 = 0.7904) was 1581 m/s, the speed of sound (298.15 K, x2 = 0.9191) was 1571 m/s and the speed of sound (303.15 K, x2 = 0.0925) was 1623 m/s. The speed of sound (303.15 K, x2 = 0.2022) was 1619 m/s, the speed of sound (303.15 K, x2 = 0.2995) was 1614 m/s and the speed of sound (303.15 K, x2 = 0.4002) was 1604 m/s. The speed of sound (303.15 K, x2 = 0.4982) was 1595 m/s, the speed of sound (303.15 K, x2 = 0.5953) was 1587 m/s and the speed of sound (308.15 K, x2 = 0) was 1599 m/s. It also gave a speed of sound (308.15 K, x2 = 0.0925) of 1606 m/s, a speed of sound (308.15 K, x2 = 0.2022) of 1603 m/s and a speed of sound (308.15 K, x2 = 0.4002) of 1590 m/s. It also gave a speed of sound (308.15 K, x2 = 0.5953) of 1573 m/s, a speed of sound (308.15 K, x2 = 0.6935) of 1565 m/s and a speed of sound (308.15 K, x2 = 0.7904) of 1557 m/s. The speed of sound (308.15 K, x2 = 0.9191) was 1548 m/s, the speed of sound (313.15 K, x2 = 0.0925) was 1588 m/s and the speed of sound (313.15 K, x2 = 0.2022) was 1587 m/s. It also gave a speed of sound (313.15 K, x2 = 0.2995) of 1582 m/s, a speed of sound (313.15 K, x2 = 0.4982) of 1568 m/s and a speed of sound (313.15 K, x2 = 0.5953) of 1560 m/s. It also gave a speed of sound (313.15 K, x2 = 0.6935) of 1553 m/s, a speed of sound (313.15 K, x2 = 0.7904) of 1546 m/s and a speed of sound (313.15 K, x2 = 0.9191) of 1537 m/s. For the same molecule, the speed of sound (318.15 K, x2 = 0) was 1561 m/s, the speed of sound (318.15 K, x2 = 0.0925) was 1570 m/s and the speed of sound (318.15 K, x2 = 0.2022) was 1571 m/s. For the same molecule, the speed of sound (318.15 K, x2 = 0.2995) was 1566 m/s, the speed of sound (318.15 K, x2 = 0.4002) was 1561 m/s and the speed of sound (318.15 K, x2 = 0.5953) was 1548 m/s. It also gave a speed of sound (318.15 K, x2 = 0.7904) of 1534 m/s, a speed of sound (318.15 K, x2 = 0.9191) of 1526 m/s and a speed of sound (323.15 K, x2 = 0.0925) of 1553 m/s. It also gave a speed of sound (323.15 K, x2 = 0.2022) of 1555 m/s, a speed of sound (323.15 K, x2 = 0.4982) of 1541 m/s and a speed of sound (323.15 K, x2 = 0.6935) of 1529 m/s. The speed of sound (323.15 K, x2 = 0.7904) was 1523 m/s and the speed of sound (323.15 K, x2 = 0.9191) was 1516 m/s.
